Measurements as given in US11583552B2, “Pharmaceutical formulation of arsenic trioxide” (priority 2021, dated 2023).
Where two headings read alike, the source gives them in different places.

Experiments:
[1] = Inhouse trials: Arsenic Trioxide in glycerin with sodium hydroxide; type: physicochemical; conditions: dissolved first in sodium hydroxide solution, then added to Glycerin
[2] = cited from earlier work

In the case of Arsenic Trioxide, the “concentrated solution of Arsenic Trioxide formed in presence of Glycerin” value [1] is given as 157400 µg/mL, the “solubility of Arsenic Trioxide in 100 g of water” value (from here on “solubility of Arsenic Trioxide”) ([2]; 0° C.) is given as 1.2 g and the “solubility of Arsenic Trioxide” value ([2]; 25° C.) is given as 2.1 g. For the same substance, the “solubility of Arsenic Trioxide” value ([2]; 75° C.) was 5.6 g and the “solubility in alcohol, chloroform, and ether” value [2] was “insoluble”.
